Measurements published in ChEMBL document CHEMBL1201862, “PubChem BioAssay data set” (2004).
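Dose response: 5 concentrations. Exposure: 48 h. Format: 96-well plates. Endpoint: linear interpolation; highest concentration if not reached. At the GI50, growth is halved.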 The source made the active and inactive calls. Cut-off read from the data, not from the text of the source: active = GI50 up to about 1.1 µM and inactive = higher.

How the values were obtained:
Assay in all cases: growth of human tumour cells (NCI), 48 h
[1] = test system: RXF 393
[2] = test system: HCT-15
[3] = test system: Hs-578T
[4] = test system: OVCAR-4
[5] = test system: SW-620
[6] = test system: SNB-19
[7] = test system: CCRF-CEM
[8] = test system: HL-60
[9] = test system: Malme-3M
[10] = test system: NCI-H23
[11] = test system: SR
[12] = test system: HCC 2998
[13] = test system: U-251
[14] = test system: NCI-H460
[15] = test system: EKVX
[16] = test system: LOX IMVI
[17] = test system: 786-0
[18] = test system: SK-MEL-5
[19] = test system: ACHN
[20] = test system: OVCAR-3

Row | Compound | GI50 [1] | GI50 [2] [µM] | GI50 [3] | GI50 [4] | GI50 [5] | GI50 [6] | GI50 [7] | GI50 [8] | GI50 [9] | GI50 [10] | GI50 [11] | GI50 [12] | GI50 [13] | GI50 [14] | GI50 [15] | GI50 [16] | GI50 [17] | GI50 [18] | GI50 [19] | GI50 [20]
1 | CCOC(=O)c1cc2cc([N+](=O)[O-])ccc2oc1=O | > 100 µM (inactive) | > 100 | > 100 µM (inactive) | > 100 µM (inactive) | > 100 µM (inactive) | > 100 µM (inactive) | > 100 µM (inactive) | 99.5 µM (inactive) | > 100 µM (inactive) | > 100 µM (inactive) | > 100 µM (inactive) | 58.6 µM (inactive) | > 100 µM (inactive) | 69.5 µM (inactive) | > 100 µM (inactive) | > 100 µM (inactive) | > 100 µM (inactive) | > 100 µM (inactive) | > 100 µM (inactive) | > 100 µM (inactive)
2 | C=CC[C@@]1(C)CCCCCCCCC[C@@](C)(CC=C)C1=O | 16.9 µM (inactive) | 29.4 | 18.9 µM (inactive) | > 100 µM (inactive) | 24.6 µM (inactive) | 20.5 µM (inactive) | 20.2 µM (inactive) | 20.7 µM (inactive) | 25.7 µM (inactive) | 25.5 µM (inactive) | 27.5 µM (inactive) | 17.4 µM (inactive) | 18.9 µM (inactive) | 24.4 µM (inactive) | 38.4 µM (inactive) | 18.1 µM (inactive) | 31.3 µM (inactive) | 16 µM (inactive) | 34.6 µM (inactive) | 19 µM (inactive)
3 | COC(=O)/C=C1/OC(c2ccccc2)=C(C)C1=O | 10.6 µM (inactive) | 4.79 | 27.5 µM (inactive) |  | 2.4 µM (inactive) | 16.4 µM (inactive) | 3.62 µM (inactive) | 1.97 µM (inactive) | 13.3 µM (inactive) | 20.2 µM (inactive) | 2.61 µM (inactive) | 16.6 µM (inactive) | 14.1 µM (inactive) | 20 µM (inactive) | 17.9 µM (inactive) | 1.28 µM (inactive) | 10.2 µM (inactive) | 13.6 µM (inactive) | 13 µM (inactive) | 20 µM (inactive)
4 | CC(C)Oc1c(N(Cc2ccccc2)c2ccccc2C2SCCCS2)c(=O)c1=O | 4.88 µM (inactive) | 3.71 | 3.44 µM (inactive) | 9.04 µM (inactive) | 2.71 µM (inactive) | 3.9 µM (inactive) | 5.87 µM (inactive) | 3.98 µM (inactive) | 2.9 µM (inactive) | 3.97 µM (inactive) | 2.79 µM (inactive) | 3.5 µM (inactive) | 4.4 µM (inactive) | 3.69 µM (inactive) | 4.51 µM (inactive) | 5.56 µM (inactive) | 4.41 µM (inactive) | 4.32 µM (inactive) | 5.81 µM (inactive) | 2.33 µM (inactive)
5 | C[C@@H](NC(=O)Cn1c(Cl)nc2ccccc21)c1ccccc1 | > 100 µM (inactive) | > 100 | 51.6 µM (inactive) | > 100 µM (inactive) | > 100 µM (inactive) | > 100 µM (inactive) | > 100 µM (inactive) | > 100 µM (inactive) | > 100 µM (inactive) | 46.2 µM (inactive) | > 100 µM (inactive) | > 100 µM (inactive) | > 100 µM (inactive) | > 100 µM (inactive) | 26.7 µM (inactive) | 75.7 µM (inactive) | > 100 µM (inactive) | 17.5 µM (inactive) | > 100 µM (inactive) | > 100 µM (inactive)
6 | C=C(C)[C@@H]1CC[C@]2(C(=O)OC3OC(COC4OC(CO)C(OC5OC(C)C(O)C(O)C5O)C(O)C4O)C(O)C(O)C3O)CC[C@]3(C)[C@H](CC[C@@H]4[C@@]5(C)CC[C@H](O)[C@@](C)(CO)[C@@H]5CC[C@]43C)[C@@H]12 (stereo partly drawn) | 5.06 µM (inactive) | 2.39 | 3.64 µM (inactive) | 3.44 µM (inactive) | 2.16 µM (inactive) | 2.72 µM (inactive) | 0.043 µM (active) | 0.0986 µM (active) | 3.78 µM (inactive) | 1.04 µM (active) | 0.755 µM (active) | 2.56 µM (inactive) | 1.64 µM (inactive) | 1.37 µM (inactive) | 2.2 µM (inactive) | 2.58 µM (inactive) | 3.98 µM (inactive) | 2.84 µM (inactive) | 2 µM (inactive) | 1.84 µM (inactive)
7 | CCCCCC/C=C\CCCCCCCCCC1=C(CN2CCN(C)CC2)C(=O)C=C(OC)C1=O | 2.29 µM (inactive) | 2.47 | 6.03 µM (inactive) | 1.76 µM (inactive) | 1.59 µM (inactive) | 11.8 µM (inactive) | 0.465 µM (active) | 0.881 µM (active) | 2.79 µM (inactive) | 4.57 µM (inactive) | 0.0578 µM (active) | 7.6 µM (inactive) |  | 5.73 µM (inactive) | 13.6 µM (inactive) | 3.8 µM (inactive) | 1.67 µM (inactive) | 6.75 µM (inactive) | 3.28 µM (inactive) | 6.76 µM (inactive)
